Measured values reported in US20210179578A1, “OX1 ANTAGONISTS” (Heptares Therapeutics Limited, priority 2017, published 2021).

Columns and labels:
human OX2 receptor = target: T1, human OX2 receptor (Homo sapiens, UniProt O43614); assay: [3H]-radioligand binding assay, OX2; parameters: made in house; host or cells: SF21 insect cells (baculovirus; P0 virus made in SF9); conditions: for Ki: [3H]-radioligand binding, human OX2 membranes, read-out: pKi average OX2 (converted)
T1 sequence (O43614 1-444): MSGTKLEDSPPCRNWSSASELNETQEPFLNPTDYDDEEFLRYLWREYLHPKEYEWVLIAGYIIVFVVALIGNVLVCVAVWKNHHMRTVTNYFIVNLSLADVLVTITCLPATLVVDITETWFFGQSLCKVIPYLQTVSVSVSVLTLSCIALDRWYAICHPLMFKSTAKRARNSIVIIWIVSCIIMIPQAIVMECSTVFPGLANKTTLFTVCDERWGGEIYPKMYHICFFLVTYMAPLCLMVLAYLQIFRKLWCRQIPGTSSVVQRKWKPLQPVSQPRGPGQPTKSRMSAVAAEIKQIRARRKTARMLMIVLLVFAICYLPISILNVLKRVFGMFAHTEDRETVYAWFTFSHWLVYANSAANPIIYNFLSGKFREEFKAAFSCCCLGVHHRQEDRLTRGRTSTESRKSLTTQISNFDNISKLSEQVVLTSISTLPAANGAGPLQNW
Excerpt: (§1) Cloning, Baculovirus generation, large-scale infection of SF21 cells and membrane preparation. Human OX1 or OX2 receptor were cloned into Invitrogen's (ThermoFisher Scientific, UK) Bac-to-Bac Baculovirus Expression System. P0 baculovirus was generated by transfecting SF9 cells with bacmid DNA using Cellfectin® II transfection reagent (ThermoFisher Scientific, UK, Catalog number 10362-100). Following P0 generation P1 virus was then generated ready for large scale infection and membrane preparation. SF21 cells were grown in expression medium ESF921 (Expression Systems, USA, catalog number 96-001-01) supplemented with 10% heat-inactivated FBS and 1% Pen/Strep and were infected at a cell density of 2.5×10^6 cells/mL and a multiplicity of infection of 1.0 for both human OX1R and OX2R. Incubation was carried out at over 48 h in a shaking incubator set at 27° C. The cell culture was then centrifuged at 2,500 rcf for 10 min at 4° C. The pellets were resuspended in cold PBS supplemented with Roche's Complete EDTA-free protease inhibitor cocktail tablets (Roche Applied Sciences, catalog number 05056489001), 1 mM PMSF and 1 mM EDTA. The resuspended cell paste was then centrifuged at 3,273 rcf for 12 min at 4° C. The supernatant was discarded and the pellet frozen at −80° C. The cell pellet from a 4 L culture was resuspended in buffer containing 50 mM HEPES pH 7.5, 150 mM NaCl, 8 Roche EDTA-Free protease inhibitor cocktail tablets and 1 mM PMSF. The suspension was left stirring at rt for 1 h and then homogenised for 90 s at 9,500 rpm using a VDI 25 (VWR, USA) homogeniser. The cells were then lysed using a Microfluidiser processor M-110L Pneumatic (Microfluidics, USA) at 60 PSI and membranes collected by ultracentrifugation at 204.7 k×g for 1 h. The supernatant was discarded and the pellet was resuspended and homogenised in 90 s at 9,500 rpm in 50 mL (25 mL for each 2 L culture) of buffer containing 50 mM Hepes pH 7.5, 150 mM NaCl, 3 Roche EDTA-free protease inhibitor cocktail tablets and 1 mM PMSF. The resulting membranes were then stored at −80° C.
(§2) [^3H]-radioligand binding assay. After thawing, membrane homogenates were resuspended in the binding buffer (8.5 mM HEPES, pH 7.4, 1.3 mM CaCl2, 1.2 mM MgSO4, 118 mM NaCl, 4.7 mM KCl, 4 mM NaHCO3, 1.2 mM KH2PO4, 11 mM glucose) to a final assay concentration of 6.4 μg (OX1) or 1.4 μg (OX2) protein per well. Saturation isotherms were determined by the addition of various concentrations (0-30 nM) of [^3H]-4-(2,6-difluoro-4-methoxybenzyl)-2-(5,6-dimethoxypyridin-3-yl)-2H-1,2,4-benzothiadiazin-3(4H)-one 1,1-dioxide (Christopher et al, MedChemComm., 2015, 6, 947-955) in a total reaction volume of 250 μL for 90 min at rt. At the end of the incubation, membranes were filtered onto a 96-well GF/B filter pre-incubated with 0.5% polyethylenimine, with a Tomtec cell harvester and washed 5 times with 0.5 mL distilled water. Non-specific binding (NSB) was measured in the presence of 3.33 μM [4-(5-chloro-1,3-benzoxazol-2-yl)-7-methyl-1,4-diazepan-1-yl][5-methyl-2-(2H-1,2,3-triazol-2-yl)phenyl]methanone (Wertz et al, Angew. Chem. Int. Ed., 2011, 50, 11511-11515). Radioactivity on the filter was counted (1 min) on a Microbeta radiometric plate counter (Perkin Elmer) after addition of 50 μL of scintillation fluid (LabLogic: Part #SG-BXX-14). […] IC50 values were derived from the inhibition curve and the equilibrium dissociation constant (Ki) values were calculated using the Cheng-Prusoff equation.

human OX1 receptor = target: T2, human OX1 receptor (Homo sapiens, UniProt O43613); assay: [3H]-radioligand binding assay, OX1; parameters: made in house; host or cells: SF21 insect cells (baculovirus; P0 virus made in SF9); conditions: for Ki: [3H]-radioligand binding, human OX1 membranes, read-out: pKi average OX1 (converted)
T2 sequence (O43613 1-425): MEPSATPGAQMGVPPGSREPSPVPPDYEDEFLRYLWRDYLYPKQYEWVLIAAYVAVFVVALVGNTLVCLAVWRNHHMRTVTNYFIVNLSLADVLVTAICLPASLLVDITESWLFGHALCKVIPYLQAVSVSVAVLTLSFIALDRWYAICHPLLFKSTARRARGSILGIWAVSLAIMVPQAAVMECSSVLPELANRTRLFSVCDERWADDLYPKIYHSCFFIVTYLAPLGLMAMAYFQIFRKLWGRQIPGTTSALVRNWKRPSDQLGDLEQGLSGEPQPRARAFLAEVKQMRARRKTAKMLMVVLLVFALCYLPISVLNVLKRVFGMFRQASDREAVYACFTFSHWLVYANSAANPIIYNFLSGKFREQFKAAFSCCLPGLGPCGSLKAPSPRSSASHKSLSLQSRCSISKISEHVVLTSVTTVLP
Excerpt: as §1, §2

**Q.** How did the Ki (human OX2 receptor) turn out when `COCc1cc(F)c(CN2C(=O)C(c3cnc(C)c(C(C)(F)F)c3)CCc3c(F)cccc32)c(F)c1` (single isomer, unassigned) [Example 40, 3-[5-(1,1-difluoroethyl)-6-methylpyridin-3-yl]-1-[2,6-difluoro-4-(methoxymethyl)benzyl]-6-fluoro-1,3,4,5-tetrahydro-2H-1-benzazepin-2-one] was run?
**A.** > 15.8 nM

**Q.** What about the Ki (human OX1 receptor) of the same compound?
**A.** 1.58 nM

**Q.** Which results are given for `COc1ncc(C2CCc3c(F)cccc3N(Cc3c(F)cc(Br)cc3F)C2=O)cc1S(C)(=O)=O` (single isomer, unassigned) [Example 20, 1-(4-bromo-2,6-difluorobenzyl)-6-fluoro-3-[6-methoxy-5-(methylsulfonyl)pyridin-3-yl]-1,3,4,5-tetrahydro-2H-1-benzazepin-2-one]?
**A.** Ki (human OX2 receptor): > 631 nM; Ki (human OX1 receptor): 200 nM

**Q.** Which results are given for `Cc1ncc(C2CCc3c(F)cccc3N(Cc3cc(C#N)ccc3F)C2=O)cc1C(C)(F)F` (single isomer, unassigned) [Example 41, 3-({3-[5-(1,1-difluoroethyl)-6-methylpyridin-3-yl]-6-fluoro-2-oxo-2,3,4,5-tetrahydro-1H-1-benzazepin-1-yl}methyl)-4-fluorobenzonitrile]?
**A.** Ki (human OX2 receptor): > 501 nM; Ki (human OX1 receptor): 1.26 nM

**Q.** Which Kd (human OX2 receptor; OX2 receptor membranes, saturation isotherms) does the source give for `COc1cc(F)c(CN2C(=O)N(c3cnc(OC)c(OC)c3)S(=O)(=O)c3ccccc32)c(F)c1` [[^3H]-4-(2,6-difluoro-4-methoxybenzyl)-2-(5,6-dimethoxypyridin-3-yl)-2H-1,2,4-benzothiadiazin-3(4H)-one 1,1-dioxide, reference compound] here?
**A.** 0.75 nM

**Q.** What about the Kd (human OX1 receptor; OX1 receptor membranes, saturation isotherms) of the same compound?
**A.** 1.5 nM

**Q.** For `COc1ncc(C2CCc3c(F)cccc3N(Cc3c(F)cc(Br)cc3F)C2=O)cc1C(C)(F)F` (single isomer, unassigned) [Example 11, 1-(4-bromo-2,6-difluorobenzyl)-3-[5-(1,1-difluoroethyl)-6-methoxypyridin-3-yl]-6-fluoro-1,3,4,5-tetrahydro-2H-1-benzazepin-2-one], which Ki (human OX2 receptor) is on record?
**A.** > 126 nM

**Q.** And the Ki (human OX1 receptor)?
**A.** 1.58 nM
